Laboratory results published in patent US9796711B2, “Substituted pyrazolo[3,4-b]pyridin-6-carboxylic acids and method of use” (AbbVie S.àr.l., priority 2015, dated 2017).

Key:
[1] = target: T1, ΔF508-CFTR (Homo sapiens, UniProt P13569, DEL508-508); test: CFTR cell surface levels using HRP-tagged ΔF508-CFTR expressing CFBE cells, in the presence of a co-corrector; format: cell-based; conditions: HRP-tagged ΔF508-CFTR expressing CFBE cells, in the presence of 3 μM co-corrector; for EC50: read-out: EC50
T1 construct: host or cells: CFBE41o-, doxycycline-inducible
T1 sequence (P13569 with tags, fused parts or gaps DEL508-508): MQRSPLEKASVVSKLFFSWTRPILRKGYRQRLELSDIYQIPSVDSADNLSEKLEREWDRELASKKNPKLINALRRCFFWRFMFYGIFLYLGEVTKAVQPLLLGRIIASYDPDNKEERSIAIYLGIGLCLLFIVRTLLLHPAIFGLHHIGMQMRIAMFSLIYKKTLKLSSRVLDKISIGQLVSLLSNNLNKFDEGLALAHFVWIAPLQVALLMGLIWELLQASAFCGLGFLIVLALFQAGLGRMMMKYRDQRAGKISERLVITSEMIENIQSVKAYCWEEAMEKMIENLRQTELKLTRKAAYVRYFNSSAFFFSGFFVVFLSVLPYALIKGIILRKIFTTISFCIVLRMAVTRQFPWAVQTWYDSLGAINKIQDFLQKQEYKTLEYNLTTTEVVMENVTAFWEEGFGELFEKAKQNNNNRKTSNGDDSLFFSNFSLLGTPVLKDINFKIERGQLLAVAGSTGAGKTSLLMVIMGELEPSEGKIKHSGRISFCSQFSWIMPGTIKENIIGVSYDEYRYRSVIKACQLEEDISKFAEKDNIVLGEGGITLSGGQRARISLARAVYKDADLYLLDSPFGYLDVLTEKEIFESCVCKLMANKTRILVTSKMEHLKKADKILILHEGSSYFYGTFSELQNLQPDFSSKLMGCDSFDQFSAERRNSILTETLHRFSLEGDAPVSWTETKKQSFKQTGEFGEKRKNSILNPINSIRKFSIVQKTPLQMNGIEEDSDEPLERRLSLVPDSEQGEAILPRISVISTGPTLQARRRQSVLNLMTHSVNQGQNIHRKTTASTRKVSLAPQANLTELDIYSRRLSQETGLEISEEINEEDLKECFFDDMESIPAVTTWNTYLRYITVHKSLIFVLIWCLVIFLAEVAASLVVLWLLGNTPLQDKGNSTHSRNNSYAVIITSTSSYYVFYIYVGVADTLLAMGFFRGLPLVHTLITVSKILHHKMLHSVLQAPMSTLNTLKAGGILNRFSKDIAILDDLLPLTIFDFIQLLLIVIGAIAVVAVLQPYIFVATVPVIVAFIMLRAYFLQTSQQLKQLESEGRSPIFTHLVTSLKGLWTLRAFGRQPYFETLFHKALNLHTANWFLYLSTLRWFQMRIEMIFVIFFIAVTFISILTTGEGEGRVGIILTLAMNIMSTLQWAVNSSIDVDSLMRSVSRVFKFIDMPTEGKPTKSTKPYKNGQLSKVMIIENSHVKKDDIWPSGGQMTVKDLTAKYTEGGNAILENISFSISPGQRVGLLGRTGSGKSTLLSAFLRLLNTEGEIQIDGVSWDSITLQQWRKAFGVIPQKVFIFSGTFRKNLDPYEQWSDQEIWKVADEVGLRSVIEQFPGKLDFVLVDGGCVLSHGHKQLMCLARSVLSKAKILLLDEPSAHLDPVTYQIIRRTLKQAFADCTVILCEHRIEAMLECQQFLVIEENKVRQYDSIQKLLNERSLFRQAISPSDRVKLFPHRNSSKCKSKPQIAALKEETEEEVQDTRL
How it was run: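 Cells were seeded with 0.5 μg/mL doxycycline and held 68 h at 37 °C. Test compounds plus 3 μM co-corrector (final 0.1% DMSO) were then added for 20 h at 33 °C. Washed cells received HRP substrate, and luminescence was normalized between DMSO and 3 μM co-corrector controls.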

[2] = target: T1, ΔF508-CFTR; test: CFTR cell surface levels using HRP-tagged ΔF508-CFTR expressing CFBE cells, intrinsic corrector capacity; format: cell-based; conditions: for EC50: read-out: EC50
How it was run: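 Here the cells express ΔF508-CFTR with horseradish peroxidase inserted in extracellular loop 4, so only rescued channel at the surface gives luminescent signal. Compounds act on their own, 20 h at the reduced temperature of 33 °C; values are percent activity relative to DMSO and a 3 μM corrector.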

[3] = HRP-tagged ΔF508-CFTR expressing CFBE cells, intrinsic corrector capacity (no co-corrector), 33° C., 20 hours
[4] = HRP-tagged ΔF508-CFTR CFBE41o- cells, compounds alone (intrinsic corrector capacity), 20 hours at 33° C., positive control 3 μM corrector
[5] = HRP-tagged ΔF508-CFTR CFBE41o- cells, compounds alone (intrinsic corrector capacity), 20 hours at 33° C.

SMILES | % Activation [1] [%] | EC50 [1] [nM] | % Activation [2, 3] [%] | EC50 [2, 3] [nM] | % Activation [2, 4] [%] | EC50 [2, 5] [nM]
CCOCCN1CCN(C2CCN(c3cc(C(=O)O)nc4c3c(C(C)C)nn4-c3ccc(F)cc3)CC2)CC1 [compound 745, 4-{4-[4-(2-ethoxyethyl)piperazin-1-yl]piperidin-1-yl}-1-(4-fluorophenyl)-3-(propan-2-yl)-1H-pyrazolo[3,4-b]pyridine-6-carboxylic acid] | 457.5 | 191 | 239.3 | 573 | – | –
Cc1nn(-c2ccccc2)c2nc(C(=O)O)cc(N3CCOCC3)c12 [compound 118, 3-methyl-4-(morpholin-4-yl)-1-phenyl-1H-pyrazolo[3,4-b]pyridine-6-carboxylic acid] | 165.25 | 3340 | – | – | 26.575 | 6670
Cc1nn(-c2ccccc2)c2nc(C(=O)O)cc(N3CCCN(S(C)(=O)=O)CC3)c12 [compound 320, 4-[4-(methanesulfonyl)-1,4-diazepan-1-yl]-3-methyl-1-phenyl-1H-pyrazolo[3,4-b]pyridine-6-carboxylic acid] | 166.3 | 3340 | – | – | 19.37 | > 10000
CN(c1cc(C(=O)O)nc2c1c(C1CCC1)nn2-c1ccccc1)[C@H]1C[C@@H](O)C1 [compound 533, 3-cyclobutyl-4-[(cis-3-hydroxycyclobutyl)(methyl)amino]-1-phenyl-1H-pyrazolo[3,4-b]pyridine-6-carboxylic acid] | 315.85 | 1230 | 114.5 | 3210 | – | –
Cc1nn(-c2ccccc2)c2nc(C(=O)O)cc(OCCN(CC(C)C)C3CC3)c12 [compound 385, 4-{2-[cyclopropyl(2-methylpropyl)amino]ethoxy}-3-methyl-1-phenyl-1H-pyrazolo[3,4-b]pyridine-6-carboxylic acid] | 238.75 | 1670 | – | – | 54.89 | 1670
CC(C1CCN(c2cc(C(=O)O)nc3c2c(C2CCC2)nn3-c2ccc(F)cc2)CC1)N1CCOCC1 (centres unmarked) [compound 805, 3-cyclobutyl-1-(4-fluorophenyl)-4-{4-[1-(morpholin-4-yl)ethyl]piperidin-1-yl}-1H-pyrazolo[3,4-b]pyridine-6-carboxylic acid] | 671 | 47.4 | 364 | 72.7 | – | –
O=C(O)c1cc(OC[C@H](F)C2CCOCC2)c2c(C3CCC3)nn(-c3ccccc3)c2n1 [compound 434, 3-cyclobutyl-4-[(2R)-2-fluoro-2-(oxan-4-yl)ethoxy]-1-phenyl-1H-pyrazolo[3,4-b]pyridine-6-carboxylic acid] | 342.8 | 328 | 154.17 | 581 | – | –
CS(=O)(=O)C1(COc2cc(C(=O)O)nc3c2c(C2CCC2)nn3-c2ccccc2)CCC1 [compound 632, 3-cyclobutyl-4-{[1-(methanesulfonyl)cyclobutyl]methoxy}-1-phenyl-1H-pyrazolo[3,4-b]pyridine-6-carboxylic acid] | 129.55 | > 10000 | 18.94 | > 10000 | – | –
N#CC1CN(C2CCN(c3cc(C(=O)O)nc4c3c(C3CCC3)nn4-c3ccc(F)cc3)CC2)CCO1 (centres unmarked) [compound 851, 4-[4-(2-cyanomorpholin-4-yl)piperidin-1-yl]-3-cyclobutyl-1-(4-fluorophenyl)-1H-pyrazolo[3,4-b]pyridine-6-carboxylic acid] | 559.8 | 123 | 342.9 | 244 | – | –
CCC1(F)CN(c2cc(C(=O)O)nc3c2c(C2CCC2)nn3-c2ccccc2)C1 [compound 530, 3-cyclobutyl-4-(3-ethyl-3-fluoroazetidin-1-yl)-1-phenyl-1H-pyrazolo[3,4-b]pyridine-6-carboxylic acid] | 254.15 | 542 | 90.17 | 718 | – | –
COCC1CN(CC2CCN(c3cc(C(=O)O)nc4c3c(C3CCC3)nn4-c3ccccc3)CC2)C1 [compound 831, 3-cyclobutyl-4-(4-{[3-(methoxymethyl)azetidin-1-yl]methyl}piperidin-1-yl)-1-phenyl-1H-pyrazolo[3,4-b]pyridine-6-carboxylic acid] | 402.5 | 407 | 231.3 | 1460 | – | –
COCCC1(COc2cc(C(=O)O)nc3c2c(C)nn3-c2ccccc2)CC1 [compound 388, 4-{[1-(2-methoxyethyl)cyclopropyl]methoxy}-3-methyl-1-phenyl-1H-pyrazolo[3,4-b]pyridine-6-carboxylic acid] | 171.6 | 1460 | – | – | 50.555 | 1670
O=C(O)c1cc(N2CC[C@H](F)[C@H](O)C2)c2c(C3CCC3)nn(-c3ccccc3)c2n1 [compound 535, 3-cyclobutyl-4-[(3R,4S)-4-fluoro-3-hydroxypiperidin-1-yl]-1-phenyl-1H-pyrazolo[3,4-b]pyridine-6-carboxylic acid] | 205.9 | 1410 | 56.68 | 2850 | – | –
O=C(O)c1cc(-c2ccc(N3CCOCC3)cc2)c2c(C3CCC3)nn(-c3cccc(C(F)(F)F)c3)c2n1 [compound 354, 3-cyclobutyl-4-[4-(morpholin-4-yl)phenyl]-1-[3-(trifluoromethyl)phenyl]-1H-pyrazolo[3,4-b]pyridine-6-carboxylic acid] | 429.9 | 323 | – | – | 212.07 | 450
Cc1cccc(-n2nc(C(C)C)c3c(N4CCC5C(CCN5CC#N)C4)cc(C(=O)O)nc32)c1 (centres unmarked) [compound 256, 4-[1-(cyanomethyl)octahydro-5H-pyrrolo[3,2-c]pyridin-5-yl]-1-(3-methylphenyl)-3-(propan-2-yl)-1H-pyrazolo[3,4-b]pyridine-6-carboxylic acid] | 362.25 | 2050 | – | – | 180 | 3340
COCCOC1CCN(c2cc(C(=O)O)nc3c2c(C)nn3-c2ccccc2)CC1 [compound 318, 4-[4-(2-methoxyethoxy)piperidin-1-yl]-3-methyl-1-phenyl-1H-pyrazolo[3,4-b]pyridine-6-carboxylic acid] | 323.72 | 1860 | – | – | 134.15 | 2630
Cc1nn(-c2ccccc2)c2nc(C(=O)O)cc(N3CCC(C(=O)N4CCCC4)CC3)c12 [compound 305, 3-methyl-1-phenyl-4-[4-(pyrrolidine-1-carbonyl)piperidin-1-yl]-1H-pyrazolo[3,4-b]pyridine-6-carboxylic acid] | 170.5 | 1440 | – | – | 29.97 | 3120
CC(=O)N1CCN(c2cc(C(=O)O)nc3c2c(C)nn3-c2ccccc2)CC1 [compound 132, 4-(4-acetylpiperazin-1-yl)-3-methyl-1-phenyl-1H-pyrazolo[3,4-b]pyridine-6-carboxylic acid] | 156.4 | 3340 | – | – | 13.45 | > 10000
COCC(COC)Oc1cc(C(=O)O)nc2c1c(C(C)C)nn2-c1ccc(F)cc1 [compound 654, 4-[(1,3-dimethoxypropan-2-yl)oxy]-1-(4-fluorophenyl)-3-(propan-2-yl)-1H-pyrazolo[3,4-b]pyridine-6-carboxylic acid] | 245.5 | 3330 | 66.19 | 3330 | – | –
CC(=O)N1CC(Oc2nn(-c3ccccc3)c3nc(C(=O)O)cc(-c4ccc(N5CCOCC5)cc4)c23)C1 [compound 497, 3-[(1-acetylazetidin-3-yl)oxy]-4-[4-(morpholin-4-yl)phenyl]-1-phenyl-1H-pyrazolo[3,4-b]pyridine-6-carboxylic acid] | 157.55 | 3340 | 24.76 | > 10000 | – | –
CC(=O)N1CCC(c2cc(C(=O)O)nc3c2c(C)nn3-c2ccccc2)CC1 [compound 138, 4-(1-acetylpiperidin-4-yl)-3-methyl-1-phenyl-1H-pyrazolo[3,4-b]pyridine-6-carboxylic acid] | 133.3 | > 10000 | – | – | 12.11 | > 10000
CC(C)c1nn(-c2ccc(F)cc2)c2nc(C(=O)O)cc(N3CCN(CCC(=O)N4CCCN(C)CC4)CC3)c12 [compound 779, 1-(4-fluorophenyl)-4-{4-[3-(4-methyl-1,4-diazepan-1-yl)-3-oxopropyl]piperazin-1-yl}-3-(propan-2-yl)-1H-pyrazolo[3,4-b]pyridine-6-carboxylic acid] | 121.2 | 5000 | 6.923 | 5000 | – | –
Cc1nn(-c2ccccc2)c2nc(C(=O)O)cc(N3CC[C@H](F)C3)c12 [compound 300, 4-[(3S)-3-fluoropyrrolidin-1-yl]-3-methyl-1-phenyl-1H-pyrazolo[3,4-b]pyridine-6-carboxylic acid] | 165 | 2510 | – | – | 41.065 | 2510
